Experiments:
[1] = test system: Maackia amurensis lectins (MAA); experiment: CUPRA library screening and affinity, MAA; assay type: binding; details: 50uM MAA; mean of 4 DIi values, FigS3c
Experimental: Unless otherwise noted, the measurements were performed at 25 °C. […] We identified specific ligands from the depletion index (DIi, Eq. 1) – the change in the fractional abundance (Fi, Eq. 2) ratio of ligand i-bound and free ^UniPproxy ions upon addition of GBP. Prior to calculating Fi, we treated each mass spectrum with the Sliding Window Adducts Removal Method (SWARM)[18] to remove contributions to the abundance of ^UniPproxy -OS^mod complex ions from adducts, formed by the ESI process, of neighbouring complex ions (Supplementary Fig. 2). Shown in Fig. 2a is a summary of the DIi measured by CUPRA screening of the 66-component library against S4 (50 μM). As expected, the average DIi for this negative control is close to 1.0 (0.99 ± 0.03). In contrast, CUPRA screening against the positive controls produced decreases in DIi for one or more of the library components. […] Application of CUPRA to human CD22, part of an important class of Neu5Ac-binding GBPs implicated in both innate and adaptive immunity, correctly identified HMO08 as a ligand (Supplementary Fig. 4a). CUPRA screening of MAA at high concentration (50 μM) identified HMO03 and GA06 as ligands. […]
Using SWARM-treated mass spectra, DIi was calculated for each ligand from the ratio of the fractional abundances (Fi) of ligand (i)-bound and free ^UniPproxy ions in the presence (+GBP) and absence (-GBP) of GBP, Eqs. […]

human siglec-2 (CD22) = molecular target: T1, human siglec-2 (CD22) (Homo sapiens, UniProt P20273); experiment: CUPRA library screening and affinity, siglec-2; assay type: binding; details: for average DI: mean of 4 DIi values
T1 construct: Residues 1–332 of human Siglec-2 (MW 140 kDa, purity > 95%) were cloned in frame with human IgG1 Fc and a C-terminal His6; made in house
T1 sequence (P20273 20-332): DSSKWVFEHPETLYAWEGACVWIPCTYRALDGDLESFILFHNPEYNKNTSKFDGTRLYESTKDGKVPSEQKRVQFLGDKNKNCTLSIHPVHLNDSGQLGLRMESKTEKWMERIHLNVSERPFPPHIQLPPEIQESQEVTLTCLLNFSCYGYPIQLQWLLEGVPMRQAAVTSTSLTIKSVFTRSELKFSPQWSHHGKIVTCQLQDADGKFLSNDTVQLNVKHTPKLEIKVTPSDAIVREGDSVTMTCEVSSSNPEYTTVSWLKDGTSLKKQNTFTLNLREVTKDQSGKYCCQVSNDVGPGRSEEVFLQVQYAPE

## CC(=O)N[C@H]1[C@H](O[C@@H]2[C@H](O[C@]3(C(=O)O)C[C@H](O)[C@@H](NC(C)=O)[C@H]([C@H](O)[C@@H](CO)O[C@]4(C(=O)O)C[C@H](O)[C@@H](NC(C)=O)[C@H]([C@H](O)[C@H](O)CO)O4)O3)[C@@H](O)[C@H](O[C@H]3[C@H](O)[C@@H](O)[C@H](N(CCOCCOCCNC(=O)[C@H](Cc4ccccc4)NC(=O)[C@H](Cc4ccccc4)NC(=O)CCCC(=O)NCCc4ccc(S(N)(=O)=O)cc4)C(C)=O)O[C@@H]3CO)O[C@@H]2CO)O[C@H](CO)[C@H](O)[C@@H]1O [GA10, GalNAcβ1-4(Neu5Acα2-8 Neu5Acα2-3)Galβ1-4Glc-CL]
[1]
  average DI: 1.024
Human siglec-2 (CD22); 25uM CD22
  average DI: 0.9974
Human siglec-2 (CD22); 25uM CD22, replicate column 1 of 4
  DIi(25uM CD22): 0.9925
Human siglec-2 (CD22); 25uM CD22, replicate column 2 of 4
  DIi(25uM CD22): 1.005
Human siglec-2 (CD22); 25uM CD22, replicate column 3 of 4
  DIi(25uM CD22): 0.9899
Human siglec-2 (CD22); 25uM CD22, replicate column 4 of 4
  DIi(25uM CD22): 1.002
Human siglec-2 (CD22); 25uM CD22 at 0C
  average DI: 0.9401
Human siglec-2 (CD22); 25uM CD22 at 0C, replicate column 1 of 4
  DIi(25uM CD22 at 0C): 0.9406
Human siglec-2 (CD22); 25uM CD22 at 0C, replicate column 2 of 4
  DIi(25uM CD22 at 0C): 0.9609
Human siglec-2 (CD22); 25uM CD22 at 0C, replicate column 3 of 4
  DIi(25uM CD22 at 0C): 0.9196
Human siglec-2 (CD22); 25uM CD22 at 0C, replicate column 4 of 4
  DIi(25uM CD22 at 0C): 0.9395
